We go through 50 compounds from patent US8426412B2, “2-alkynyl-6-pyridin-2-yl-pyridazinones, 2-alkynyl-6-pyridin-2-yl-dihydropyridazinones, 2-alkynyl-6-pyrimidin-2-yl-pyridazinones and 2-alkynyl-6-pyrimidin-2-yl-dihydropyridazinones and their use as fungicides” (Dow AgroSciences, LLC., priority 2008, dated 2013).

pIC50: −log10 of the molar value. Converted amounts (≈) assume the structure as drawn. Where two headings read alike, the source gives them in different places.

The target in assay [1] is T1, microsomal Δ-9 fatty acid desaturase (Saccharomyces cerevisiae, UniProt P21147).
T1 sequence (P21147 1-510): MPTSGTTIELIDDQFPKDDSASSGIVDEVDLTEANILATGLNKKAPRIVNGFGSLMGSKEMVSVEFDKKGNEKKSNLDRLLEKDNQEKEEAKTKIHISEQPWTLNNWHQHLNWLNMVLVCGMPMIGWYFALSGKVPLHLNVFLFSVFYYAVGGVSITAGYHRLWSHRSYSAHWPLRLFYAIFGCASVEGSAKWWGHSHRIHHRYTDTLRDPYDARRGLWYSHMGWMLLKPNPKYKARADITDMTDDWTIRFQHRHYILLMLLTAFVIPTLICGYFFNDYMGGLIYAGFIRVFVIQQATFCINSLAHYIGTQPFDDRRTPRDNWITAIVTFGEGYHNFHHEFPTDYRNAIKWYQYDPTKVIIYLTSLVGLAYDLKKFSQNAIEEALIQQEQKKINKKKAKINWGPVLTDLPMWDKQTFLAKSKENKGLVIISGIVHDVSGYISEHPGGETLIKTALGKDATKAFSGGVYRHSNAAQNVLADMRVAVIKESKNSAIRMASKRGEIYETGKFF
The assay is described as follows: Inhibition of Δ-9 fatty acid desaturase (desaturation of 14C-palmitoyl-CoA to 14C-palmitoleic acid). The following applies: I50, concentration inhibiting production of palmitoleic acid by 50%; yeast microsomes, 30° C., 5 min.

The subject of assay [2] is Colletotrichum lagenarium (COLLLA). Briefly: Activity towards plant pathogenic fungi, growth inhibition in microtiter plates. The format is cell-based. The conditions noted are these: Colletotrichum orbiculare, 72 h, read-out: EC50 COLLLA.
The subject of assay [3] is Pyricularia oryzae (PYRIOR). The assay is described as follows: microbe, parasite or virus in culture. The format is cell-based. The conditions noted are these: 72 h, read-out: EC50 PYRIOR.
The test system of assay [4] is Candida albicans. The assay is described as follows: microbe, parasite or virus in culture. The format is cell-based.
Setting [5] is: 50% inhibition of growth, 25° C., NepheloStar plate reader.

Broadly, the pIC50 is the negative decadic logarithm of the IC50, by convention in mol/L. In assay [1], `CCCCCCCC#CCn1nc(-c2ccc(Cl)cn2)ccc1=O` showed a pIC50 of 7.11. Same read-out and setting: for `CCC#CCn1nc(-c2ccc(Br)cn2)ccc1=O` the value was over 6.91; for `CCCCOCC#CCn1nc(-c2ccc(Cl)cn2)ccc1=O`, 7.57; for `CCCCOCCC#CCn1nc(-c2ccc(Cl)cn2)ccc1=O`, 7.28. Still for that read-out and setting: with `CCCOCCCC#CCn1nc(-c2ccc(Cl)cn2)ccc1=O` the figure was 7.54. Same read-out and setting: for `CCCOCCOCC#CCn1nc(-c2ccc(Cl)cn2)ccc1=O` the value was 6.97; for `C=CC#CCn1nc(-c2ccc(Cl)cn2)ccc1=O`, 7.23; for `CCC#CCn1nc(-c2ncc(Br)cn2)ccc1=O`, 5.42. Regarding `CCCCCCCC#CCn1nc(-c2ncc(Br)cn2)ccc1=O`, the negative-log IC50 (pIC50) in assay [1] is 7.06.

`CCCCCCOCC#CCn1nc(-c2ncc(Br)cn2)ccc1=O` had a pIC50 in assay [1] of 7.40. A word on the EC50: it is the concentration giving half of the maximal effect. Regarding `CCC#CCn1nc(-c2ccc(C(F)(F)F)cn2)ccc1=O`, the half-maximal effective concentration (EC50) in assay [2] (setting [5]) worked out at 0.758 µg/mL (≈ 2.47 µM); in assay [3], 0.674 µg/mL (≈ 2.19 µM). On the same counts, the results for `CCC#CCN1N=C(c2cc(Cl)ccn2)CCC1=O` are 5.75 µg/mL (≈ 20.9 µM) and 5.52 µg/mL (≈ 20 µM). Take `CCC#CCN1N=C(c2ccc(Cl)cn2)CCC1=O`: the EC50 in assay [2] (setting [5]) turned out to be 0.194 µg/mL (≈ 0.704 µM); in assay [3] it was 0.021 µg/mL (≈ 0.0762 µM). With `CCC#CCN1N=C(c2ccc(Cl)c(Cl)n2)CCC1=O`, the EC50 in assay [2] (setting [5]) is 0.036 µg/mL (≈ 0.116 µM); in assay [3], 0.031 µg/mL (≈ 0.0999 µM). As for `CCC#CCn1nc(-c2ccc(F)c(F)n2)ccc1=O`, the EC50 amounted to 0.181 µg/mL (≈ 0.658 µM) in assay [2] (setting [5]) and 0.163 µg/mL (≈ 0.592 µM) in assay [3]. Turning to `CCC#CCn1nc(-c2ccc(Cl)cn2)ccc1=O` [drawing 70], the pIC50 in assay [1] was 6.92. Same read-out and setting: with `CCCCCOCC#CCn1nc(-c2ccc(Cl)cn2)ccc1=O` [drawing 72] the figure was 7.64; with `CCCCCCCOCC#CCn1nc(-c2ccc(Cl)cn2)ccc1=O` [drawing 76], 7.34; with `CCCCOCCOCC#CCn1nc(-c2ccc(Cl)cn2)ccc1=O` [drawing 77], 6.76.

In assay [1], `CCC(C)CCOCC#CCn1nc(-c2ccc(Cl)cn2)ccc1=O` (stereo not shown) [drawing 79] showed a pIC50 of 6.37. The same measure, in the same setting: with `CCCCCCCOCC#CCn1nc(-c2ccc(Cl)cn2)ccc1=O` [drawing 80] the figure was 7.14; with `O=c1ccc(-c2ccc(Cl)cn2)nn1CC#CC1CC1` [drawing 82], 6.33; with `CCC#CCN1N=C(c2cccc(Cl)n2)CCC1=O` [drawing 83], under 3.84. The same measure, in the same setting: with `CCC#CCn1nc(-c2cccc(Cl)n2)ccc1=O` [drawing 84] the figure was 4.21.

`CCC#CCn1nc(-c2ccc(Cl)c(Cl)n2)ccc1=O` [drawing 85] had a negative-log IC50 (pIC50) in assay [1] of 6.58.

On to `CCC#CCN1N=C(c2ncccc2Cl)CCC1=O` [drawing 86], for which the negative-log IC50 (pIC50) in assay [1] is under 3.84. In assay [1], `CCC#CCn1nc(-c2ncccc2Cl)ccc1=O` [drawing 87] had a negative logarithm of the IC50 (pIC50) of under 3.84.

Turning to `CCC#CCN1N=C(c2ncc(Cl)cc2Cl)CCC1=O` [drawing 88], the pIC50 in assay [1] is under 3.89. On the same count and under the same terms, with `CCC#CCn1nc(-c2ncc(Cl)cc2Cl)ccc1=O` [drawing 89] the figure was under 3.89; with `CC(C)(C)C#C/C=C/Cn1nc(-c2ccc(Cl)cn2)ccc1=O` [drawing 90], under 3.91; with `CCC#CCN1N=C(c2nc(Cl)c(Cl)cc2Cl)CCC1=O` [drawing 91], under 3.94. On the same count and under the same terms, for `CCC#CCn1nc(-c2ccc(Cl)c(F)n2)ccc1=O` [drawing 92] the value was 7.00.

Regarding `CCC#CCn1nc(-c2ccc(Cl)cn2)ccc1=O` [drawing 96], the EC50 was 0.113 µg/mL (≈ 0.413 µM) in assay [2] (setting [5]) and 0.0474 µg/mL (≈ 0.173 µM) in assay [3].

As to `CCCCCOCC#CCn1nc(-c2ccc(Cl)cn2)ccc1=O` [drawing 98], the EC50 in assay [2] (setting [5]) was found to be 0.007 µg/mL (≈ 0.0202 µM); in assay [3] it was 0.192 µg/mL (≈ 0.555 µM).

As for `CCCCOCCOCC#CCn1nc(-c2ccc(Cl)cn2)ccc1=O` [drawing 99], the EC50 amounted to 0.033 µg/mL (≈ 0.0878 µM) in assay [2] (setting [5]) and 0.05 µg/mL (≈ 0.133 µM) in assay [3].

With `CCC(C)CCOCC#CCn1nc(-c2ccc(Cl)cn2)ccc1=O` (stereo not shown) [drawing 100], the EC50 stood at 1.16 µg/mL (≈ 3.22 µM) in assay [2] (setting [5]) and 0.284 µg/mL (≈ 0.789 µM) in assay [3]. On the same counts, the results for `O=c1ccc(-c2ccc(Cl)cn2)nn1CC#CC1CC1` [drawing 101] are 0.092 µg/mL (≈ 0.322 µM) and 0.062 µg/mL (≈ 0.217 µM). As to `CCC#CCN1N=C(c2cccc(Cl)n2)CCC1=O` [drawing 103], the 50% effective concentration (EC50) was found to be 3.4 µg/mL (≈ 12.3 µM) in assay [2] (setting [5]) and 1.01 µg/mL (≈ 3.66 µM) in assay [3]. The corresponding values for `CCC#CCn1nc(-c2cccc(Cl)n2)ccc1=O` [drawing 105] are 1 µg/mL (≈ 3.65 µM) and 1.4 µg/mL (≈ 5.11 µM). As for `CCC#CCn1nc(-c2ccc(Cl)c(Cl)n2)ccc1=O` [drawing 106], the EC50 came out at 0.0537 µg/mL (≈ 0.174 µM) in assay [2] (setting [5]) and 0.0371 µg/mL (≈ 0.12 µM) in assay [3]. On the same counts, the results for `CCC#CCN1N=C(c2ncccc2Cl)CCC1=O` [drawing 108] are over 40 µg/mL and 33 µg/mL (≈ 120 µM). On the same counts, the results for `CCC#CCn1nc(-c2ncccc2Cl)ccc1=O` [drawing 109] are over 40 µg/mL and over 40 µg/mL. On the same counts, the results for `CCC#CCN1N=C(c2ncc(Cl)cc2Cl)CCC1=O` [drawing 110] are 8 µg/mL (≈ 25.8 µM) and 3.47 µg/mL (≈ 11.2 µM). In the case of `CCC#CCn1nc(-c2ncc(Cl)cc2Cl)ccc1=O` [drawing 111], the figures for the EC50 in assay [2] (setting [5]) and in assay [3] were 13.6 µg/mL (≈ 44.1 µM) and 4.42 µg/mL (≈ 14.3 µM), respectively.

In the case of `CC(C)(C)C#C/C=C/Cn1nc(-c2ccc(Cl)cn2)ccc1=O` [drawing 112], the EC50 in assay [2] (setting [5]) was over 40 µg/mL; in assay [3], 8.11 µg/mL (≈ 24.7 µM).

On to `CCC#CCN1N=C(c2nc(Cl)c(Cl)cc2Cl)CCC1=O` [drawing 113], for which the results for the EC50 in assay [2] and in assay [3] were 8.71 µg/mL (≈ 25.3 µM) and 5.75 µg/mL (≈ 16.7 µM), respectively.

`CCC#CCn1nc(-c2ccc(Cl)c(F)n2)ccc1=O` [drawing 114]: the concentration giving a half-maximal response (EC50) in assay [2] (setting [5]) was 0.048 µg/mL (≈ 0.165 µM); in assay [3], 0.0236 µg/mL (≈ 0.0809 µM). In the case of `CCC#CCn1nc(-c2ccc(Cl)cn2)ccc1=O` [drawing 116], the concentration for a half-maximal effect (EC50) in assay [4] is 0.091 µg/mL (≈ 0.332 µM). Regarding `CCCCCOCC#CCn1nc(-c2ccc(Cl)cn2)ccc1=O` [drawing 117], in assay [4] (Candida albicans, 48 h), the EC50 was found to be 0.176 µg/mL (≈ 0.509 µM). In assay [4], `CCC#CCn1nc(-c2ccc(Cl)cn2)ccc1=O` [drawing 118] had an EC50 of 0.210 µg/mL (≈ 0.767 µM).
